One may read the EC50 as the concentration at which the effect is half-maximal.

The test deals with human TMEM16A (TMEM16Aabc variant) (Homo sapiens, UniProt Q5XXA6, DEL476-501, form not given). The test is described as follows: Automated whole-cell patch clamp (Qpatch) TMEM16A potentiator assay in FRT cells stably expressing human TMEM16A. The format is cell-based. As to conditions: for % Potentiation @ 3.33 μM Avg: 3.33 μM solution of test compound, percentage increase of baseline TMEM16A current; for EC50: calculated EC50, Qpatch TMEM16A current at +70 mV. The essentials: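 Potentiation was read as the rise in peak +70 mV current over baseline (%), from cumulative 5-min additions of compound. Recordings used whole-cell automated patch of FRT cells stably carrying human TMEM16Aabc, with pipette Ca2+ buffered to give ~20% maximal current. EC50 and efficacy came from concentration-response fits.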
Sequence of human TMEM16A (TMEM16Aabc variant) (Q5XXA6 with tags, fused parts or gaps DEL476-501): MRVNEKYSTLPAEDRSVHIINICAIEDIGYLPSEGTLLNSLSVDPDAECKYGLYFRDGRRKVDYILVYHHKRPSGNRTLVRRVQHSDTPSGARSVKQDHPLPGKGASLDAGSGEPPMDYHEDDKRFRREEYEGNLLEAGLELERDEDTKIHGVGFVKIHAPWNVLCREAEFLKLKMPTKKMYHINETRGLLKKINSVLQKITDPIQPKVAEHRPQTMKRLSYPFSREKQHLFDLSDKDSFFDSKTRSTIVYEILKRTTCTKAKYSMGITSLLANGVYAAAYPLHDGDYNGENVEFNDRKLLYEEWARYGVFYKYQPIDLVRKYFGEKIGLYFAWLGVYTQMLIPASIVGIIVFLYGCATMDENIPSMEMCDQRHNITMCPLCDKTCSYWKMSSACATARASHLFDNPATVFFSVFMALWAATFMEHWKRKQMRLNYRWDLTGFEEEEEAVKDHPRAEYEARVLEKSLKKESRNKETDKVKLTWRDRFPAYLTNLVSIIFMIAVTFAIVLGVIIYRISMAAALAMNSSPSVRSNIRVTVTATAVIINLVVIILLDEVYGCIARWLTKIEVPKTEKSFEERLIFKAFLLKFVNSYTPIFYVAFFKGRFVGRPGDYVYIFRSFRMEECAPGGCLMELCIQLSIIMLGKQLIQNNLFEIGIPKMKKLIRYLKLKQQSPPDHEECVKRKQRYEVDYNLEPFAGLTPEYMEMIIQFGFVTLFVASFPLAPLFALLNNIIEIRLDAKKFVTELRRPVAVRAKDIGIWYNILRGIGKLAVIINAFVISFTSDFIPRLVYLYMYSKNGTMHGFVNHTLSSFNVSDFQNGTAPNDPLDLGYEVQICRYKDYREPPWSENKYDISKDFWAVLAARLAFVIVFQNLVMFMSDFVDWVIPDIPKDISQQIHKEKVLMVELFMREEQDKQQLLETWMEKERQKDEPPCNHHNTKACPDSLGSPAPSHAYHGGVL

As to `CC(C)(CO)NC(=O)c1cc(NC(=O)Cc2cc(Cl)ccc2O)ccn1` [Example 32.7, 4-[[2-(5-Chloro-2-hydroxy-phenyl)acetyl]amino]-N-(2-hydroxy-1,1-dimethyl-ethyl)pyridine-2-carboxamide], the “% Potentiation @ 3.33 μM Avg” value came to 111% and the EC50 is 200 nM.

For the compound `O=C(Cc1cc(Cl)ccc1O)Nc1ccnc(C(=O)NC2CCNCC2(F)F)c1` (centres unmarked) [Example 32.8, 4-[[2-(5-Chloro-2-hydroxy-phenyl)acetyl]amino]-N-(3,3-difluoro-4-piperidyl)pyridine-2-carboxamide], the “% Potentiation @ 3.33 μM Avg” value came out at 79%.

Regarding `O=C(Cc1cc(Cl)ccc1O)Nc1ccnc(C(=O)Nc2ncc[nH]2)c1` [Example 32.9, 4-[[2-(5-Chloro-2-hydroxy-phenyl)acetyl]amino]-N-(1H-imidazol-2-yl)pyridine-2-carboxamide], the “% Potentiation @ 3.33 μM Avg” value amounted to 31%.

Turning to `O=C(Cc1cc(Cl)ccc1O)Nc1ccnc(C(=O)N[C@@H]2CCC[C@H]2O)c1` [Example 33, 4-[[2-(5-Chloro-2-hydroxy-phenyl)acetyl]amino]-N-[(1R,2R)-2-hydroxycyclopentyl] pyridine-2-carboxamide], the “% Potentiation @ 3.33 μM Avg” value worked out at 245% and the EC50 was 240 nM.

Turning to `CC(C)(C#N)NC(=O)c1cc(NC(=O)Cc2cc(Cl)ccc2O)ccn1` [Example 34, 4-[[2-(5-Chloro-2-hydroxy-phenyl)acetyl]amino]-N-(1-cyano-1-methyl-ethyl)pyridine-2-carboxamide], the “% Potentiation @ 3.33 μM Avg” value turned out to be 245% and the EC50 is 90 nM.

Take `CC1(O)CCC(NC(=O)c2cc(NC(=O)Cc3cc(Cl)ccc3O)ccn2)CC1` (centres unmarked) [Example 35.1, 4-[[2-(5-Chloro-2-hydroxy-phenyl)acetyl]amino]-N-(4-hydroxy-4-methyl-cyclohexyl) pyridine-2-carboxamide]: the “% Potentiation @ 3.33 μM Avg” value is recorded as 51%.

Regarding `O=C(Cc1cc(Cl)ccc1O)Nc1ccnc(C(=O)N[C@H]2CCCC[C@H]2CO)c1` [Example 35.2, 4-[[2-(5-Chloro-2-hydroxy-phenyl)acetyl]amino]-N-[(1s,2r)-2-(hydroxymethyl)cyclohexyl]pyridine-2-carboxamide], the “% Potentiation @ 3.33 μM Avg” value is given as 300% and the EC50 is 610 nM.

As to `O=C(Cc1cc(Cl)ccc1O)Nc1ccnc(C(=O)N[C@H]2CC[C@@H](O)C2)c1` [Example 35.3, 4-[[2-(5-Chloro-2-hydroxy-phenyl)acetyl]amino]-N-[(1s,3r)-3-hydroxycyclopentyl]pyridine-2-carboxamide], the “% Potentiation @ 3.33 μM Avg” value amounted to 144%.

Turning to `CC(CO)(CO)NC(=O)c1cc(NC(=O)Cc2cc(Cl)ccc2O)ccn1` [Example 35.4, 4-[[2-(5-Chloro-2-hydroxy-phenyl)acetyl]amino]-N-[2-hydroxy-1-(hydroxymethyl)-1-methyl-ethyl]pyridine-2-carboxamide], the “% Potentiation @ 3.33 μM Avg” value is recorded as 138%.

As to `O=C(Cc1cc(Cl)ccc1O)Nc1ccnc(C(=O)NC2CCCC(O)C2)c1` (centres unmarked) [Example 35.6, 4-[[2-(5-Chloro-2-hydroxy-phenyl)acetyl]amino]-N-(3-hydroxycyclohexyl)pyridine-2-carboxamide], the “% Potentiation @ 3.33 μM Avg” value worked out at 53%.

On to `O=C(Cc1cc(Cl)ccc1O)Nc1ccnc(C(=O)NCCCOc2ccccc2)c1` [Example 35.7, 4-[[2-(5-Chloro-2-hydroxy-phenyl)acetyl]amino]-N-(3-phenoxypropyl)pyridine-2-carboxamide], for which the “% Potentiation @ 3.33 μM Avg” value came out at 97%.

For `CC1(NC(=O)c2cc(NC(=O)Cc3cc(Cl)ccc3O)ccn2)CC1` [Example 35.8, 4-[[2-(5-Chloro-2-hydroxy-phenyl)acetyl]amino]-N-(1-methylcyclopropyl)pyridine-2-carboxamide], the “% Potentiation @ 3.33 μM Avg” value turned out to be 250% and the EC50 is 180 nM.

For the compound `CC(C)(NC(=O)c1cc(NC(=O)Cc2cc(Cl)ccc2O)ccn1)c1ccccn1` [Example 35.9, 4-[[2-(5-Chloro-2-hydroxy-phenyl)acetyl]amino]-N-[1-methyl-1-(2-pyridyl)ethyl]pyridine-2-carboxamide], the “% Potentiation @ 3.33 μM Avg” value is 455% and the EC50 was 540 nM.

With `O=C(Cc1cc(Cl)ccc1O)Nc1ccnc(C(=O)NCCCc2ccccc2)c1` [Example 35.10, 4-[[2-(5-Chloro-2-hydroxy-phenyl)acetyl]amino]-N-(3-phenylpropyl)pyridine-2-carboxamide], the “% Potentiation @ 3.33 μM Avg” value is 223% and the EC50 was 280 nM.

As to `O=C(Cc1cc(Cl)ccc1O)Nc1ccnc(C(=O)NC(CO)c2ccccn2)c1` (centres unmarked) [Example 35.11, 4-[[2-(5-Chloro-2-hydroxy-phenyl)acetyl]amino]-N-[2-hydroxy-1-(2-pyridyl)ethyl] pyridine-2-carboxamide], the “% Potentiation @ 3.33 μM Avg” value was 107%.

With `COc1ccc(CNC(=O)c2cc(NC(=O)Cc3cc(Cl)ccc3O)ccn2)nc1` [Example 35.12, 4-[[2-(5-Chloro-2-hydroxy-phenyl)acetyl]amino]-N-[(5-methoxy-2-pyridyl)methyl]pyridine-2-carboxamide], the “% Potentiation @ 3.33 μM Avg” value turned out to be 158% and the EC50 is 420 nM.

As for `CCOC(=O)CC(C)(C)NC(=O)c1cc(NC(=O)Cc2cc(Cl)ccc2O)ccn1` [Example 35.13, ethyl 3-[[4-[[2-(5-chloro-2-hydroxy-phenyl)acetyl]amino]pyridine-2-carbonyl]amino]-3-methyl-butanoate], the “% Potentiation @ 3.33 μM Avg” value is 191% and the EC50 is 350 nM.

Turning to `CC(C)(CCO)NC(=O)c1cc(NC(=O)Cc2cc(Cl)ccc2O)ccn1` [Example 35.14, 4-[[2-(5-Chloro-2-hydroxy-phenyl)acetyl]amino]-N-(3-hydroxy-1,1-dimethyl-propyl)pyridine-2-carboxamide], the “% Potentiation @ 3.33 μM Avg” value is 172% and the EC50 was 270 nM.

With `O=C(Cc1cc(Cl)ccc1O)Nc1ccnc(C(=O)NCc2ccccc2)c1` [Example 35.15, N-Benzyl-4-[[2-(5-chloro-2-hydroxy-phenyl)acetyl]amino]pyridine-2-carboxamide], the “% Potentiation @ 3.33 μM Avg” value is given as 158% and the EC50 is 150 nM.

As for `O=C(Cc1cc(Cl)ccc1O)Nc1ccnc(C(=O)Nc2ccccc2)c1` [Example 35.16, 4-[[2-(5-Chloro-2-hydroxy-phenyl)acetyl]amino]-N-phenyl-pyridine-2-carboxamide], the “% Potentiation @ 3.33 μM Avg” value is 85% and the EC50 is 330 nM.

Regarding `O=C(Cc1cc(Cl)ccc1O)Nc1ccnc(C(=O)N[C@H]2CCC[C@@H]2O)c1` [Example 35.17, 4-[[2-(5-Chloro-2-hydroxy-phenyl)acetyl]amino]-N-[(1S,2S)-2-hydroxycyclopentyl]pyridine-2-carboxamide], the “% Potentiation @ 3.33 μM Avg” value turned out to be 153% and the EC50 was 150 nM.

As for `O=C(Cc1cc(Cl)ccc1O)Nc1ccnc(C(=O)N[C@@H]2CCC[C@@H]2O)c1` [Example 35.18, 4-[[2-(5-Chloro-2-hydroxy-phenyl)acetyl]amino]-N-[(1R,2S)-2-hydroxycyclopentyl]pyridine-2-carboxamide], the “% Potentiation @ 3.33 μM Avg” value is 147% and the 50% effective concentration (EC50) was 430 nM.

`O=C(Cc1cc(Cl)ccc1O)Nc1ccnc(C(=O)N[C@H]2CCC[C@H]2O)c1` [Example 35.19, 4-[[2-(5-Chloro-2-hydroxy-phenyl)acetyl]amino]-N-[(1S,2R)-2-hydroxycyclopentyl]pyridine-2-carboxamide]: the “% Potentiation @ 3.33 μM Avg” value is reported as 248% and the EC50 is 470 nM.

For the compound `CC1(NC(=O)c2cccc(NC(=O)Cc3cc(F)ccc3O)c2)CCCCC1` [Example 35.20, 3-[[2-(5-Fluoro-2-hydroxy-phenyl)acetyl]amino]-N-(1-methylcyclohexyl)benzamide], the “% Potentiation @ 3.33 μM Avg” value is 240% and the EC50 is 420 nM.

Regarding `C#CC(C)(C)NC(=O)c1cccc(NC(=O)Cc2cc(F)ccc2O)c1` [Example 35.21, N-(1,1-Dimethylprop-2-ynyl)-3-[[2-(5-fluoro-2-hydroxy-phenyl)acetyl]amino]benzamide], the “% Potentiation @ 3.33 μM Avg” value was 200% and the EC50 was 410 nM.

On to `O=C(Cc1cc(F)ccc1O)Nc1cccc(C(=O)NC2CCCCC2)c1` [Example 35.22, N-Cyclohexyl-3-[[2-(5-fluoro-2-hydroxy-phenyl)acetyl]amino]benzamide], for which the “% Potentiation @ 3.33 μM Avg” value is recorded as 104% and the EC50 is 220 nM.

In the case of `C#CC1(NC(=O)c2cc(NC(=O)Cc3cc(Cl)ccc3O)ccn2)CCCCC1` [Example 35.24, 4-[[2-(5-Chloro-2-hydroxy-phenyl)acetyl]amino]-N-(1-ethynylcyclohexyl)pyridine-2-carboxamide], the “% Potentiation @ 3.33 μM Avg” value was found to be 120% and the EC50 was 10 nM.

Regarding `O=C(Cc1cc(Cl)ccc1O)Nc1ccnc(C(=O)NC2(CO)CCC2)c1` [Example 35.25, 4-[[2-(5-Chloro-2-hydroxy-phenyl)acetyl]amino]-N-[1-(hydroxymethyl)cyclobutyl]pyridine-2-carboxamide], the “% Potentiation @ 3.33 μM Avg” value is given as 126% and the EC50 is 100 nM.

`O=C(Cc1cc(Cl)ccc1O)Nc1ccnc(C(=O)NC2(CO)COC2)c1` [Example 35.26, 4-[[2-(5-Chloro-2-hydroxy-phenyl)acetyl]amino]-N-[3-(hydroxymethyl)oxetan-3-yl]pyridine-2-carboxamide]: the “% Potentiation @ 3.33 μM Avg” value is 157%.

Turning to `COCC(C)(C#N)NC(=O)c1cc(NC(=O)Cc2cc(Cl)ccc2O)ccn1` (centres unmarked) [Example 35.27, 4-[[2-(5-Chloro-2-hydroxy-phenyl)acetyl]amino]-N-(1-cyano-2-methoxy-1-methyl-ethyl)pyridine-2-carboxamide], the “% Potentiation @ 3.33 μM Avg” value came out at 496% and the EC50 was 330 nM.

As for `CC(C)C(C)(C#N)NC(=O)c1cc(NC(=O)Cc2cc(Cl)ccc2O)ccn1` (centres unmarked) [Example 37, 4-[[2-(5-Chloro-2-hydroxy-phenyl)acetyl]amino]-N-(1-cyano-1,2-dimethyl-propyl)pyridine-2-carboxamide], the “% Potentiation @ 3.33 μM Avg” value was determined as 352% and the EC50 is 120 nM.

The values above are taken from patent US20200361871A1 (Enterprise Therapeutics Ltd., priority 2018, published 2020).
